Assay results taken from patent US4048333A (priority 1971, dated 1977).

How the values were obtained:
FMD = tested on: FMD; design: species or system newborn mice; conditions: mouse, in vivo
FMD virus type C = format: cell-based, FMD virus type C (calf kidney primary cultures)
echovirus 19 = experiment: one-step virus growth cycle experiments, echovirus 19; format: cell-based, echovirus 19 (FL cells); conditions: maximum subtoxic concentration; for Results from the one-step virus growth cycle experiments, % of inhibition: virus yield vs control; for Results from the one-step virus growth cycle experiments, PFU/ml: control 2.6×10^9
[1] = acute toxicity / selectivity index, species not stated; conditions: in vivo; species and route not given
[2] = tested on: coxsackievirus B1, B3, A6 and A7; experiment: animal or person; format: in vivo, newborn mice; conditions: for ED50: Enterovirus B, B1, in Mus musculus, sc, read-out: ED50 dose; for antiviral activity on experimental Coxsackie infections (in words): mouse, in vivo; for retardation of the course of the infection: newborn mice, 3-10 LD50, subcutaneous once daily
poliovirus 1 [3] = format: cell-based, poliovirus 1 (FL cells); conditions: maximum subtoxic concentration; for Results from one-step virus growth cycle experiments, PFU/ml: control 1.2×10^9; for Results from one-step virus growth cycle experiments, % of inhibition: virus yield vs control
FMD virus = tested on: FMD virus; design: species or system guinea pigs; conditions: guinea pig, in vivo
poliovirus 1 [4] = format: cell-based, poliovirus 1 (FL cells); conditions: FL cells, 48 hour incubation
coxsackievirus B1 = format: cell-based, coxsackievirus B1 (FL cells)
pregnant female rats = experiment: teratogenic effect in pregnant female rats; format: in vivo; conditions: intraperitoneal, daily doses of 100 mg/kg
[5] = acute toxicity for rats (LD50, Pershin method); conditions: rat, in vivo, ip, intraperitoneal
rats = experiment: subacute toxicity for rats; format: in vivo; conditions: intraperitoneal, 200 mg/kg daily for 30 days
[6] = acute toxicity for mice (LD50, Pershin method); conditions: mouse, in vivo; for LD50: mice, Pershin method

Oc1cccc(NC(=S)Nc2ccccc2)c1 [Example 22, N-phenyl-N'-3-hydroxyphenylthiourea]
animals in which development of FMD encephalitis is prevented (FMD): 33.3% | Results from the one-step virus growth cycle experiments, % of inhibition (FMD virus type C): 97.92% | Results from the one-step virus growth cycle experiments, PFU/ml (FMD virus type C): 1.5×10^5 PFU/ml | Results from the one-step virus growth cycle experiments, % of inhibition (echovirus 19): above 99% | LD50 [1]: 1000 mg/kg | ED50 [2]: 86.6 mg/kg | antiviral activity on experimental Coxsackie infections (in words) [2]: marked antiviral activity | retardation of the course of the infection [2]: 2 to 3 days

S=C(Nc1ccccc1)Nc1cccc2cccnc12 [Example 2]
Results from one-step virus growth cycle experiments, PFU/ml (poliovirus 1 [3]): 5.2×10^8 PFU/ml | Results from one-step virus growth cycle experiments, % of inhibition (poliovirus 1 [3]): 48.00%

O=[N+]([O-])c1ccc(O)c(NC(=S)Nc2ccccc2)c1 [Example 7]
Results from one-step virus growth cycle experiments, PFU/ml (poliovirus 1 [3]): 3.5×10^8 PFU/ml | Results from one-step virus growth cycle experiments, % of inhibition (poliovirus 1 [3]): 70.83%

Oc1ccc(NC(=S)Nc2ccccc2)cc1 [Example 24, N-phenyl-N'-4-hydroxyphenylthiourea]
Results from the one-step virus growth cycle experiments, % of inhibition (FMD virus type C): 99.65% | Results from the one-step virus growth cycle experiments, PFU/ml (FMD virus type C): 2.5×10^4 PFU/ml | reduction of the number of ailing animals compared with the placebo group (FMD virus): reduces the number of ailing animals two to three and a half times

Oc1cccc(NC(=S)Nc2ccccc2)c1 [Example 5]
Results from the gradient plaque-inhibition test (poliovirus 1 [4]): + + | Results from one-step virus growth cycle experiments, PFU/ml (poliovirus 1 [3]): 7×10^6 PFU/ml | Results from one-step virus growth cycle experiments, % of inhibition (poliovirus 1 [3]): 99.42%

O=C(O)CCCNC(=S)Nc1ccccc1 [Example 8, γ-phenylthioureidobutyric acid]
Results from one-step virus growth cycle experiments, PFU/ml (poliovirus 1 [3]): 1.5×10^7 PFU/ml | Results from the one-step virus growth cycle experiments, PFU/ml (echovirus 19): 5× 10^6 PFU/ml | Results from the one-step virus growth cycle experiments, % of inhibition (echovirus 19; listed as 21): 99.81% | Results from the one-step virus growth cycle experiments, % of inhibition (echovirus 19; listed as μ-phenylthioureidobutyric acid): above 99% | Results from the one-step virus growth cycle experiments, PFU/ml (coxsackievirus B1): ≤ 1×10^6 PFU/ml

O=[N+]([O-])c1ccc(O)c(NC(=S)Nc2ccccc2)c1 [Example 15]
Results from the one-step virus growth cycle experiments, % of inhibition (coxsackievirus B1): 93.87% | Results from the one-step virus growth cycle experiments, PFU/ml (coxsackievirus B1): 4.6×10^7 PFU/ml

O=C(O)c1ccccc1NC(=S)Nc1ccccc1 [Example 3]
Results from one-step virus growth cycle experiments, PFU/ml (poliovirus 1 [3]): 5.9×10^7 PFU/ml | Results from one-step virus growth cycle experiments, % of inhibition (poliovirus 1 [3]): 95.09%

Oc1cccc(NC(=S)Nc2ccccc2)c1 [Example 19]
Results from the one-step virus growth cycle experiments, PFU/ml (echovirus 19): 2×10^6 PFU/ml | Results from the one-step virus growth cycle experiments, % of inhibition (echovirus 19): 99.92%

O=C(O)c1ccccc1NC(=S)Nc1ccccc1 [Example 17]
Results from the one-step virus growth cycle experiments, PFU/ml (echovirus 19): 5×10^6 PFU/ml | Results from the one-step virus growth cycle experiments, % of inhibition (echovirus 19): 99.81%

Cc1cccc(NC(=S)Nc2ccccc2)c1 [N-phenyl-N'-3-tolylthiourea]
Results from one-step virus growth cycle experiments, % of inhibition (poliovirus 1 [3]): 95-99%

Cc1cccc(NC(=S)Nc2ccccc2)c1 [Example 9]
Results from one-step virus growth cycle experiments, PFU/ml (poliovirus 1 [3]): 1.4×10^7 PFU/ml | Results from one-step virus growth cycle experiments, % of inhibition (poliovirus 1 [3]): 98.79%

O=C(O)c1ccc(NC(=S)Nc2ccccc2)cc1O [Example 12]
Results from the one-step virus growth cycle experiments, PFU/ml (coxsackievirus B1): ≤ 1×10^6 PFU/ml

O=[N+]([O-])c1ccc(O)c(NC(=S)Nc2ccccc2)c1 [Example 20, N-phenyl-N'-2-hydroxy-5-nitrophenylthiourea]
Results from the one-step virus growth cycle experiments, PFU/ml (echovirus 19): 5.9×10^7 PFU/ml | Results from the one-step virus growth cycle experiments, % of inhibition (echovirus 19): 97.73%

O=C(O)c1ccc(NC(=S)Nc2ccccc2)cc1O [Example 4, N-phenyl-N'-4-carboxy-5-hydroxyphenylthiourea]
teratogenic effect (pregnant female rats): No teratogenic effect | Results from one-step virus growth cycle experiments, PFU/ml (poliovirus 1 [3]): < 1×10^6 PFU/ml | Results from one-step virus growth cycle experiments, % of inhibition (poliovirus 1 [3]): > 99.92% | LD50 [5]: 734 mg/kg | Results from the one-step virus growth cycle experiments, % of inhibition (echovirus 19): above 99% | ED50 [2]: 43.3 mg/kg | antiviral activity on experimental Coxsackie infections (in words) [2]: marked antiviral activity | retardation of the course of the infection [2]: 2 to 3 days | subacute toxicity: changes in general state, behaviour, weight, blood pattern (rats): no changes in the general state and behaviour of the animals, or in their weight, the blood pattern, etc. were observed | LD50 ([6]; ip, intraperitoneal): 550 mg/kg | LD50 ([6]; sc, subcutaneous): > 1000 mg/kg | selectivity ratio ([6]; LD50 /ED50, read-out: selectivity index (LD50 /ED50)): ≥ 23

Oc1ccc(NC(=S)Nc2ccccc2)cc1 [Example 6]
Results from one-step virus growth cycle experiments, PFU/ml (poliovirus 1 [3]): 3.7×10^8 PFU/ml | Results from one-step virus growth cycle experiments, % of inhibition (poliovirus 1 [3]): 69.17%

S=C(Nc1ccccc1)Nc1cnc2ccccc2c1 [Example 1]
Results from one-step virus growth cycle experiments, PFU/ml (poliovirus 1 [3]): 3.3×10^8 PFU/ml | Results from one-step virus growth cycle experiments, % of inhibition (poliovirus 1 [3]): 67.00%

CC(=O)c1ccc(NC(=S)Nc2ccccc2)cc1 [N-phenyl-N'-acetylphenylthiourea]
Results from one-step virus growth cycle experiments, % of inhibition (poliovirus 1 [3]): 95-99%

O=C(O)c1ccc(NC(=S)Nc2ccccc2)cc1O [Example 18]
Results from the one-step virus growth cycle experiments, PFU/ml (echovirus 19): < 1×10^6 PFU/ml | Results from the one-step virus growth cycle experiments, % of inhibition (echovirus 19): > 99.96%

CC(=O)c1ccc(NC(=S)Nc2ccccc2)cc1 [Example 10]
Results from one-step virus growth cycle experiments, PFU/ml (poliovirus 1 [3]): 4.6×10^7 PFU/ml | Results from one-step virus growth cycle experiments, % of inhibition (poliovirus 1 [3]): 96.17%

O=C(O)c1ccccc1NC(=S)Nc1ccccc1 [N-phenyl-N'-2-carboxyphenylthiourea]
Results from one-step virus growth cycle experiments, % of inhibition (poliovirus 1 [3]): 95-99% | Results from the one-step virus growth cycle experiments, % of inhibition (echovirus 19): above 99%

S=C(Nc1ccccc1)Nc1ccc(Cl)cc1NC(=S)Nc1ccccc1 [Example 11]
Results from one-step virus growth cycle experiments, PFU/ml (poliovirus 1 [3]): 4.3×10^8 PFU/ml | Results from one-step virus growth cycle experiments, % of inhibition (poliovirus 1 [3]): 57.00%

Oc1cccc(NC(=S)Nc2ccccc2)c1 [Example 13]
Results from the one-step virus growth cycle experiments, PFU/ml (coxsackievirus B1): ≤ 1×10^6 PFU/ml

Oc1ccc(NC(=S)Nc2ccccc2)cc1 [Example 14]
Results from the one-step virus growth cycle experiments, PFU/ml (coxsackievirus B1): < 1×10^6 PFU/ml
